The assay deals with T1, human FXa (Homo sapiens, UniProt P00742).
T1 construct: human FXa, Haematologic Technologies Inc; purchased Haematologic Technologies Inc
The assay is described as follows: Measurement of Factor Xa Inhibition (chromogenic substrate method). Type of assay: biochemical. The following applies: inhibition of Factor Xa activity, screen a); chromogenic substrate S-2765, 40 min at 37° C.; specimen results. On the procedure: a) Measurement of Factor Xa Inhibition
The FXa inhibitor potency was measured with a chromogenic substrate method, in a Plato 3300 robotic microplate processor (Rosys AG, CH-8634 Hombrechtikon, Switzerland), using 96-well, half-volume microtiter plates (Costar, Cambridge, Mass., USA; Cat No 3690). Stock solutions of test substance in DMSO (72 μL), 10 mmol/L, alternatively 1 mmol/L were diluted serially 1:3 (24+48 μL) with DMSO to obtain ten different concentrations, which were analyzed as samples in the assay, together with controls and blanks. As control sample melagatran was analysed. The dilutions of each test substance were analyzed consecutively, row-wise on the microtiter plate, with wash-cycles between substances to avoid cross-contamination. […] The final assay concentrations were: test substance 0.0068-133, respectively 0.00068-13.3 μmol/L, S-2765 0.40 mmol/L (KM=0.25 mmol/L) and FXa 0.1 nmol/L. The linear absorbance increase at 405 nm during 40 min incubation at 37° C. was used for calculation of percent inhibition for the test samples, as compared to references without inhibitor and/or enzyme. […]

Each structure is given as a SMILES string.

T1 sequence (P00742 235-488 limits assumed): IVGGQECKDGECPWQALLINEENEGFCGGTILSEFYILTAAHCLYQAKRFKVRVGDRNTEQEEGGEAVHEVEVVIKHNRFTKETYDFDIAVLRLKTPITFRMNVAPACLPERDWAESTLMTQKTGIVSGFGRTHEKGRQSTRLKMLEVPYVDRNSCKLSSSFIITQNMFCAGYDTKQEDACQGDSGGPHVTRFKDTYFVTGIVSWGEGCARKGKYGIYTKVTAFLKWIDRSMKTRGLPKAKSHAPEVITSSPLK
T1 sequence (P00742 41-179 partner limits assumed): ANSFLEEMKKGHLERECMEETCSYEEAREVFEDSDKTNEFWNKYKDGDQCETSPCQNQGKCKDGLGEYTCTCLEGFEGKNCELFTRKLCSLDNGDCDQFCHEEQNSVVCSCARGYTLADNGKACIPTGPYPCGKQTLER

What is called IC50 is the concentration needed to halve the response being measured. A high value points to lower potency. As for `CNCCn1nc(-c2ccc(C(=O)N3CCN(S(=O)(=O)c4cc5cc(Cl)ccc5[nH]4)CC3)cc2)ccc1=O` [Example 3, 6-{4-[4-(5-Chloro-1H-indole-2-sulphonyl)-piperazine-1-carbonyl]-phenyl}-2-(2-methylamino-ethyl)-2H-pyridazin-3-one], half-maximal inhibition (IC50) was put at 55 nM.

For the molecule `COCCOCCn1nc(-c2ccc(C(=O)N3CCN(S(=O)(=O)c4cc5cc(Cl)ccc5[nH]4)CC3)cc2)ccc1=O` [Example 9, 6-{4-[4-(5-Chloro-1H-indole-2-sulphonyl)-piperazine-1-carbonyl]-phenyl}-2-[2-(2-methoxy-ethoxy)-ethyl]-2H-pyridazin-3-one], the half-maximal inhibitory concentration (IC50) is 38 nM.

For the origin of these results see patent US7419979B2, “Derivatives of 6-{4-[4-(1H-indole-2-sulphonyl)-piperazin-1-carbonyl-phenyl]}pyradizin-3-one” (AstraZeneca AB, priority 2004, dated 2008).
